Reference: PMC12589546, “A plastid carbohydrate carrier mediates ribose recycling from nucleotide catabolism and glucose export from starch degradation” (Nature Communications, 2025)

Biological target: T1, At-pGlcT (At-pGlcTNTD) (Arabidopsis thaliana, UniProt B9DGP1)
T1 construct: gene At5g16150; plastid transit peptide (residues 1-82) replaced by E. coli PhoR residues 1-54 (membrane-targeting NTD); C-terminal 6xHis tag kept; expressed in E. coli sugar-uptake mutants, intact-cell uptake
T1 sequence (B9DGP1 83-546): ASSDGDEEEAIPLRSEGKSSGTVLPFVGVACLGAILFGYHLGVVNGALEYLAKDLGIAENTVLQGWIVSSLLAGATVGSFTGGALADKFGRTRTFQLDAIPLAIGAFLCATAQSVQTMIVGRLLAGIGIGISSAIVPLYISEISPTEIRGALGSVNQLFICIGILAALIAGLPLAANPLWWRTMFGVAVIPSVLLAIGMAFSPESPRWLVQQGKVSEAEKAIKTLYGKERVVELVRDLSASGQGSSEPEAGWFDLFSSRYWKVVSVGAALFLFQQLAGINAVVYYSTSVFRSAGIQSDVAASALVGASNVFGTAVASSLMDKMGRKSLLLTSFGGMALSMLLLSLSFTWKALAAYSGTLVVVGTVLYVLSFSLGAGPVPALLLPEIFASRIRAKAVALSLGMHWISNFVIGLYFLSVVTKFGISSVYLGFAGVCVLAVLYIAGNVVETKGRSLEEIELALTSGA
Assay: competition with […]-ribose uptake in E. coli ΔrbsC ΔxylH ΔalsC
Format: cell-based
Details: 1 mM 14C-ribose, 10 mM unlabelled sugar, pH 7, 37 °C, 30 min, competitive

| SMILES | inhibition of 14C-ribose uptake at 10 mM (3H-fructose uptake also measured) | inhibition of 14C-ribose uptake at 10 mM (14C-glucose uptake also measured) |
| --- | --- | --- |
| OCC1(O)OC[C@@H](O)[C@@H](O)[C@@H]1O (some centres unmarked) [fructose] | its presence also reduced the uptake of the radioactively labeled ribose |  |
| OC[C@H]1OC(O)[C@H](O)[C@@H](O)[C@@H]1O (some centres unmarked) [glucose] |  | but also glucose was an equally efficient suppressor |
